# Measured values: patent US5556970A, “Lanolin fatty acids, a method for their fractionation, cosmetics and drugs for external use” (priority 1992, dated 1996)
# What was measured:
# [1] = system: atopic dermatitis, ichthyosis and age-associated wrinkles; details: in vivo; cited from earlier work
# [2] = interaction with water (water solubility); assay type: physicochemical; details: 2 g in 100 ml distilled water
# Procedure: For this test, 2 g of each sample was dissolved by heating in a beaker, 100 ml of distilled water at 70° C. was added and the mixture was stirred at the constant temperature of 70° C. for about 1 hour, after which it was allowed to cool and examined.
Stability (in words) [2],"Condition of aqueous solution ([2]; 70° C., 1 hour, cooled)",SMILES,effect in skin conditions [1]
–,–,O=C(O)C(O)C(O)C(=O)O (centres unmarked) [tartaric acid],"effective in atopic dermatitis, ichthyosis and reduction of age-associated wrinkles"
–,–,CC(O)C(=O)O (centres unmarked) [lactic acid],"effective in atopic dermatitis, ichthyosis and reduction of age-associated wrinkles"
–,–,O=C(O)CC(O)(CC(=O)O)C(=O)O [citric acid],"effective in atopic dermatitis, ichthyosis and reduction of age-associated wrinkles"
Phase separation on standing,Emulsion,"CCCCCCCCCCCCCCCCCC(=O)OCC(O)CO (centres unmarked) [GLYMSA, Glycerol monostearate]",–
